Patent US6358885B1, “Substituted phenylheterocyclic herbicides” (Mississippi State University, priority 1992, dated 2002)

Columns and labels:
Japonica rice [1] = experiment: Test D paddy water application plant response rating 0 to 100; assay type: in vivo, Oryza sativa; details: 0 to 100 scale, approx. 21 days
Description: (§1) Plastic pots were partially filled with silt loam soil. The soil was then saturated with water. […] After planting, water levels were raised to 3 cm above the soil surface and maintained at this level throughout the test. Chemical treatments were formulated in a non-phytotoxic solvent and applied directly to the paddy water. Treated plants and controls were maintained in a greenhouse for approximately 21 days, after which all species were compared to controls and visually evaluated. […] A dash (-) response means no test result.

barnyardgrass [2] = experiment: as above; assay type: in vivo, Echinochloa crus-galli; details: 0 to 100 scale, approx. 21 days
Description: as §1

duck salad = experiment: as above; assay type: in vivo, Heteranthera limosa; details: 0 to 100 scale, approx. 21 days
Description: as §1

umbrella sedge = experiment: as above; assay type: in vivo, Cyperus difformis; details: 0 to 100 scale, approx. 21 days
Description: as §1

Japonica rice [3] = experiment: Test E paddy water application plant response rating 0 to 100; assay type: in vivo, oryza sativa; details: Flood, 0 to 100 scale, approx. 21 days
Description: (§2) Plastic pots were partially filled with silt loam soil. […] At testing, the water level for all plantings was raised to 2 cm above the soil surface. Chemical treatments were formulated in a non-phytotoxic solvent and applied directly to the paddy water. Treated plants and controls were maintained in a greenhouse for approximately 21 days, after which all species were compared to controls and visually evaluated. […] A dash (-) response means no test result.

barnyardgrass [4] = experiment: as above; assay type: in vivo, Echinochloa crus-galli; details: Flood, 0 to 100 scale, approx. 21 days
Description: as §2

winter barley = experiment: Test F preemergence/postemergence greenhouse plant response rating 0 to 100; assay type: in vivo, Hordeum vulgare cv. ‘Igri’; details: POSTEMERGENCE, 0 to 100 scale
Description: (§3) Compounds evaluated in this test were formulated in a non-phytoxic solvent and applied to the soil surface before plant seedlings emerged (preemergence application) and to plants that were in the one-to-four leaf stage (postemergence application). A sandy loam soil was used for the preemergence test while a mixture of sandy loam soil and greenhouse potting mix in a 60:40 ratio was used for the postemergence test. Test compounds were applied within approximately one day after planting seeds for the preemergence test. Plantings of these crops and weed species were adjusted to produce plants of appropriate size for the postemergence test. All plant species were grown using normal greenhouse practices. Crop and weed species include winter barley (Hordeum vulgare cv. ‘Igri’), blackgrass (Alopecurus myosuroides), chickweed (Stellaria media), downy brome (Bromus tectorum), field violet (Viola arvensis), galium (Galium aparine), green foxtail (Setaria viridis), kochia (Kochia scoparia), lambsquarters (Chenopodium album), speedwell (Veronica persica), rape (Brassica napus), ryegrass (Lolium multiflorum), sugar beet (Beta vulgaris cv. ‘USl’), sunflower (Helianthus annuus cv. ‘Russian Giant’), spring wheat (Triticum aestivum cv. ‘ERA’), winter wheat (Triticum aestivum cv. ‘Talent’), wild buckwheat (Polygonum convolvulus), wild mustard (Sinapis arvensis), wild oat (Avena fatua), and wild radish (Raphanus raphanistrum). Blackgrass, galium and wild oat were treated at two growth stages. […] Treated plants and untreated controls were maintained in a greenhouse for approximately 21 to 28 days, after which all treated plants were compared to untreated controls and visually evaluated. […] A dash response (-) means no test result.

chickweed = experiment: as above; assay type: in vivo, Stellaria media; details: POSTEMERGENCE, 0 to 100 scale
Description: as §3

field violet = experiment: as above; assay type: in vivo, Viola arvensis; details: POSTEMERGENCE, 0 to 100 scale
Description: as §3

kochia = experiment: as above; assay type: in vivo, Kochia scoparia; details: POSTEMERGENCE, 0 to 100 scale
Description: as §3

sugar beet = experiment: as above; assay type: in vivo, Beta vulgaris cv. ‘USl’; details: POSTEMERGENCE, 0 to 100 scale
Description: as §3

wild mustard = experiment: as above; assay type: in vivo, Sinapis arvensis; details: POSTEMERGENCE, 0 to 100 scale
Description: as §3

wild oat = experiment: as above; assay type: in vivo, Avena fatua; details: POSTEMERGENCE, 0 to 100 scale; for Wild oat (1) plant response rating: stage (1) two to three leaves; for Wild oat (2) plant response rating: stage (2) approximately four leaves or initial tillering
Description: as §3

C#CC(C)Oc1cc(-c2nn3c(c2Cl)CCCC3)c(F)cc1Cl (stereo not shown) [Compound 36]
40: Barnyardgrass 2 plant response rating (barnyardgrass [4]; Rate 16 g/ha) | Barnyardgrass 3 plant response rating (barnyardgrass [4]; Rate 32 g/ha)
35: Barnyardgrass 3 plant response rating (barnyardgrass [4]; Rate 16 g/ha)
70: Umbrella sedge plant response rating (umbrella sedge; Rate 32 g/ha)
50: Barnyardgrass 3 plant response rating (barnyardgrass [4]; Rate 64 g/ha) | Chickweed plant response rating (chickweed; Rate 4 g/ha)
20: Japonica rice plant response rating (Japonica rice [1]; Rate 32 g/ha) | Duck salad plant response rating (duck salad; Rate 16 g/ha) | Japonica 1 plant response rating (Japonica rice [3]; Rate 16 g/ha) | Japonica 1 plant response rating (Japonica rice [3]; Rate 32 g/ha) | Japonica 2 plant response rating (Japonica rice [3]; Rate 125 g/ha) | Winter Barley plant response rating (winter barley; Rate 4 g/ha) | Winter Barley plant response rating (winter barley; Rate 8 g/ha) | Winter Barley plant response rating (winter barley; Rate 16 g/ha) | Kochia plant response rating (kochia; Rate 4 g/ha) | Wild oat (1) plant response rating (wild oat; Rate 8 g/ha) | Wild oat (1) plant response rating (wild oat; Rate 16 g/ha) | Wild oat (2) plant response rating (wild oat; Rate 16 g/ha) | Wild oat (1) plant response rating (wild oat; Rate 32 g/ha) | Wild oat (2) plant response rating (wild oat; Rate 32 g/ha)
0: Duck salad plant response rating (duck salad; Rate 4 g/ha) | Duck salad plant response rating (duck salad; Rate 8 g/ha) | Umbrella sedge plant response rating (umbrella sedge; Rate 4 g/ha) | Umbrella sedge plant response rating (umbrella sedge; Rate 8 g/ha) | Japonica 2 plant response rating (Japonica rice [3]; Rate 16 g/ha)
100: Barnyardgrass 2 plant response rating (barnyardgrass [2]; Rate 32 g/ha) | Barnyardgrass 2 plant response rating (barnyardgrass [2]; Rate 64 g/ha) | Barnyardgrass 2 plant response rating (barnyardgrass [4]; Rate 125 g/ha) | Chickweed plant response rating (chickweed; Rate 8 g/ha) | Chickweed plant response rating (chickweed; Rate 16 g/ha) | Chickweed plant response rating (chickweed; Rate 32 g/ha) | Field violet plant response rating (field violet; Rate 4 g/ha) | Field violet plant response rating (field violet; Rate 8 g/ha) | Field violet plant response rating (field violet; Rate 16 g/ha) | Field violet plant response rating (field violet; Rate 32 g/ha) | Kochia plant response rating (kochia; Rate 32 g/ha) | Sugar beet plant response rating (sugar beet; Rate 4 g/ha) | Sugar beet plant response rating (sugar beet; Rate 8 g/ha) | Sugar beet plant response rating (sugar beet; Rate 16 g/ha) | Sugar beet plant response rating (sugar beet; Rate 32 g/ha) | Wild mustard plant response rating (wild mustard; Rate 4 g/ha) | Wild mustard plant response rating (wild mustard; Rate 8 g/ha) | Wild mustard plant response rating (wild mustard; Rate 16 g/ha) | Wild mustard plant response rating (wild mustard; Rate 32 g/ha)
10: Japonica rice plant response rating (Japonica rice [1]; Rate 4 g/ha) | Japonica rice plant response rating (Japonica rice [1]; Rate 8 g/ha) | Japonica 2 plant response rating (Japonica rice [3]; Rate 8 g/ha) | Wild oat (1) plant response rating (wild oat; Rate 4 g/ha) | Wild oat (2) plant response rating (wild oat; Rate 4 g/ha) | Wild oat (2) plant response rating (wild oat; Rate 8 g/ha)
15: Japonica rice plant response rating (Japonica rice [1]; Rate 16 g/ha) | Japonica 1 plant response rating (Japonica rice [3]; Rate 8 g/ha) | Japonica 2 plant response rating (Japonica rice [3]; Rate 32 g/ha) | Japonica 2 plant response rating (Japonica rice [3]; Rate 64 g/ha)
25: Japonica rice plant response rating (Japonica rice [1]; Rate 64 g/ha) | Japonica 1 plant response rating (Japonica rice [3]; Rate 64 g/ha) | Japonica 1 plant response rating (Japonica rice [3]; Rate 125 g/ha) | Winter Barley plant response rating (winter barley; Rate 32 g/ha)
30: Barnyardgrass 2 plant response rating (barnyardgrass [2]; Rate 4 g/ha) | Duck salad plant response rating (duck salad; Rate 32 g/ha) | Barnyardgrass 2 plant response rating (barnyardgrass [4]; Rate 8 g/ha) | Barnyardgrass 3 plant response rating (barnyardgrass [4]; Rate 8 g/ha)
75: Barnyardgrass 3 plant response rating (barnyardgrass [4]; Rate 125 g/ha)
55: Barnyardgrass 2 plant response rating (barnyardgrass [4]; Rate 32 g/ha)
80: Barnyardgrass 2 plant response rating (barnyardgrass [2]; Rate 16 g/ha) | Umbrella sedge plant response rating (umbrella sedge; Rate 64 g/ha)
65: Barnyardgrass 2 plant response rating (barnyardgrass [2]; Rate 8 g/ha) | Barnyardgrass 2 plant response rating (barnyardgrass [4]; Rate 64 g/ha)
60: Duck salad plant response rating (duck salad; Rate 64 g/ha) | Umbrella sedge plant response rating (umbrella sedge; Rate 16 g/ha) | Kochia plant response rating (kochia; Rate 8 g/ha) | Kochia plant response rating (kochia; Rate 16 g/ha)

C#CC(C)N1C(=O)COc2cc(F)c(-c3nn4c(c3Cl)CCCC4)cc21 (stereo not shown) [Compound 50]
35: Japonica 2 plant response rating (Japonica rice [3]; Rate 64 g/ha) | Barnyardgrass 2 plant response rating (barnyardgrass [4]; Rate 64 g/ha) | Barnyardgrass 3 plant response rating (barnyardgrass [4]; Rate 64 g/ha)
60: Barnyardgrass 3 plant response rating (barnyardgrass [4]; Rate 125 g/ha)
10: Barnyardgrass 3 plant response rating (barnyardgrass [4]; Rate 8 g/ha)
75: Japonica 1 plant response rating (Japonica rice [3]; Rate 125 g/ha)
15: Japonica 2 plant response rating (Japonica rice [3]; Rate 8 g/ha) | Barnyardgrass 2 plant response rating (barnyardgrass [4]; Rate 8 g/ha) | Barnyardgrass 2 plant response rating (barnyardgrass [4]; Rate 16 g/ha) | Barnyardgrass 3 plant response rating (barnyardgrass [4]; Rate 16 g/ha)
45: Japonica 2 plant response rating (Japonica rice [3]; Rate 125 g/ha)
0: Japonica 1 plant response rating (Japonica rice [3]; Rate 8 g/ha) | Winter Barley plant response rating (winter barley; Rate 16 g/ha) | Winter Barley plant response rating (winter barley; Rate 32 g/ha) | Winter Barley plant response rating (winter barley; Rate 64 g/ha) | Wild oat (1) plant response rating (wild oat; Rate 16 g/ha) | Wild oat (2) plant response rating (wild oat; Rate 16 g/ha) | Wild oat (1) plant response rating (wild oat; Rate 32 g/ha) | Wild oat (2) plant response rating (wild oat; Rate 32 g/ha) | Wild oat (1) plant response rating (wild oat; Rate 64 g/ha) | Wild oat (2) plant response rating (wild oat; Rate 64 g/ha) | Wild oat (1) plant response rating (wild oat; Rate 125 g/ha) | Wild oat (2) plant response rating (wild oat; Rate 125 g/ha)
50: Japonica 1 plant response rating (Japonica rice [3]; Rate 64 g/ha) | Winter Barley plant response rating (winter barley; Rate 125 g/ha)
55: Barnyardgrass 2 plant response rating (barnyardgrass [4]; Rate 125 g/ha)
20: Japonica 1 plant response rating (Japonica rice [3]; Rate 16 g/ha) | Japonica 2 plant response rating (Japonica rice [3]; Rate 16 g/ha) | Barnyardgrass 3 plant response rating (barnyardgrass [4]; Rate 32 g/ha)
100: Chickweed plant response rating (chickweed; Rate 32 g/ha) | Chickweed plant response rating (chickweed; Rate 64 g/ha) | Chickweed plant response rating (chickweed; Rate 125 g/ha) | Field violet plant response rating (field violet; Rate 16 g/ha) | Field violet plant response rating (field violet; Rate 32 g/ha) | Field violet plant response rating (field violet; Rate 64 g/ha) | Field violet plant response rating (field violet; Rate 125 g/ha) | Kochia plant response rating (kochia; Rate 16 g/ha) | Kochia plant response rating (kochia; Rate 32 g/ha) | Kochia plant response rating (kochia; Rate 64 g/ha) | Kochia plant response rating (kochia; Rate 125 g/ha) | Sugar beet plant response rating (sugar beet; Rate 16 g/ha) | Sugar beet plant response rating (sugar beet; Rate 32 g/ha) | Sugar beet plant response rating (sugar beet; Rate 64 g/ha) | Sugar beet plant response rating (sugar beet; Rate 125 g/ha) | Wild mustard plant response rating (wild mustard; Rate 64 g/ha) | Wild mustard plant response rating (wild mustard; Rate 125 g/ha)
30: Japonica 2 plant response rating (Japonica rice [3]; Rate 32 g/ha)
25: Barnyardgrass 2 plant response rating (barnyardgrass [4]; Rate 32 g/ha)
70: Chickweed plant response rating (chickweed; Rate 16 g/ha) | Wild mustard plant response rating (wild mustard; Rate 16 g/ha) | Wild mustard plant response rating (wild mustard; Rate 32 g/ha)
40: Japonica 1 plant response rating (Japonica rice [3]; Rate 32 g/ha)
